Source: patent US20250388544A1, “HETEROAROMATIC INHIBITORS OF ASTACIN PROTEINASES” (VIVORYON THERAPEUTICS N.V., priority 2019, published 2025)

What was measured:
Assay type in all cases: biochemical
hMeprin α = molecular target: T1, hMeprin α (Homo sapiens, UniProt Q16819); experiment: Enzymatic assay, quenched peptide substrate cleavage, method B; details: geometric mean (geometric SD factor in parentheses); for Ki: Morrison's equation, read-out: Meprin alpha Ki(app); for IC50: read-out: Meprin alpha IC50
T1 sequence (Q16819 66-746): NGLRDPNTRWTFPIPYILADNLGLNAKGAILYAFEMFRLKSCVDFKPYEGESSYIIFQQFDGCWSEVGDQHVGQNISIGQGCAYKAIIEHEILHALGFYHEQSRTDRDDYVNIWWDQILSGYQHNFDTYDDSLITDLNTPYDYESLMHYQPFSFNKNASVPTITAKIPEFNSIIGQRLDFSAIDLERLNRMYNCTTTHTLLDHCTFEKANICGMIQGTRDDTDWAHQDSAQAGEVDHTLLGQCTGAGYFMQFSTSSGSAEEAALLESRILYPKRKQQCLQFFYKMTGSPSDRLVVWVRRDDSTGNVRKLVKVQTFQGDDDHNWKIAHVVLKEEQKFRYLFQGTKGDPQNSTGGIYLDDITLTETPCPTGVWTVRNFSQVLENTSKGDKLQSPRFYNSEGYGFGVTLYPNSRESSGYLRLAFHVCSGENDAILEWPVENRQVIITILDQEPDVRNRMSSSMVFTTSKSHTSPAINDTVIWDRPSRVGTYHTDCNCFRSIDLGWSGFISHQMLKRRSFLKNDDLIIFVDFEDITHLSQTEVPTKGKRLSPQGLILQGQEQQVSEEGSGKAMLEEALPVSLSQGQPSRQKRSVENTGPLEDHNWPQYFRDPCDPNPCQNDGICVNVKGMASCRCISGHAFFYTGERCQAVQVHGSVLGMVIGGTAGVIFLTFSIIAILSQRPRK
Procedure, shortened: (§1)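 Cleavage of internally quenched peptides was read at 340/420 nm and 30° C., with enzyme at 5e-8 to 2e-10 M and substrate at 0.15–80 μM. Inhibitor solutions contained 1% DMSO and substrate 0.5% DMSO. Method B gave Ki(app) values via Morrison's equation, with kinetics measured in at least duplicate on separate days.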

hMeprin β = molecular target: T2, hMeprin β (Homo sapiens, UniProt Q16820); experiment: as above; details: geometric mean (geometric SD factor in parentheses); for Ki: Morrison's equation, read-out: Meprin beta Ki(app); for IC50: read-out: Meprin beta IC50
T2 sequence (Q16820 62-701): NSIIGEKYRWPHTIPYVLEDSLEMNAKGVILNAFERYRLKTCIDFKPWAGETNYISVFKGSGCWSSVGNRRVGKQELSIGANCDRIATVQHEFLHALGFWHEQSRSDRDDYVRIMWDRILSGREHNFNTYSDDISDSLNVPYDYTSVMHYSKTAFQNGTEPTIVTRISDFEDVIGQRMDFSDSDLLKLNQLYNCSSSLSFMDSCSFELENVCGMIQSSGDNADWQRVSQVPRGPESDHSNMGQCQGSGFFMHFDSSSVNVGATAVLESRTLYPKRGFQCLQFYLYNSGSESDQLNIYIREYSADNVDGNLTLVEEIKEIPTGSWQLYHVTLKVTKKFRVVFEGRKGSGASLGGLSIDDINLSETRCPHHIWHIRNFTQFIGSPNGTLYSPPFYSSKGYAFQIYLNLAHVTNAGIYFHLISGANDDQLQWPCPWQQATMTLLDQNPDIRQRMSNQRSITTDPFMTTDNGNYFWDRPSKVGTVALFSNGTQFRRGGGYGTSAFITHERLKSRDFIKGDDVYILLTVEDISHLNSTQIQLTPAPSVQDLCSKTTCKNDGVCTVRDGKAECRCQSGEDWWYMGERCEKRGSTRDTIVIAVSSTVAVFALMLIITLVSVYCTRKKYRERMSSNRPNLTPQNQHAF
Procedure, shortened: as §1

hMMP 13 = molecular target: T3, hMMP 13 (Homo sapiens, UniProt P45452); experiment: Residual enzyme activity of other metalloproteases; details: read-out: Residual enzyme activity MMP13; for remaining activity at 10 µM: 10 μM inhibitor; for remaining activity at 200 µM: 200 μM inhibitor
T3 construct: purchased R&D systems
Protocol: (§2) A typical assay of 250 μl total volume measured in black 96 well plates consisted of 100 μl buffer, 50 μl enzyme at a final concentration of 5e-8 M to 2e-10 M, 50 μl substrate (0.15 to 80 μM, in buffer, 0.5% DMSO) and 50 μl inhibitor solution (in buffer, 1% DMSO). In case of 125 μl assay volume (black 96 half area well plates) all volumes were cut in half. Enzymatic activity of ADAMs was measured in 384 well plates with 60 μl total assay volume consisting of 20 μl inhibitor, 20 μl buffer, 10 μl enzyme and 10 μl substrate.
(§3) MMPs were activated prior to measurement by APMA (p-aminophenylmercuric acetate) treatment according to manufacturer's instructions (R&D systems).

hMMP 2 = molecular target: T4, hMMP 2 (Homo sapiens, UniProt P08253); experiment: Residual enzyme activity of other metalloproteases; details: read-out: Residual enzyme activity MMP2; for remaining activity at 10 µM: 10 μM inhibitor; for remaining activity at 200 µM: 200 μM inhibitor
T4 construct: purchased Abnova
T4 sequence (P08253 110-660): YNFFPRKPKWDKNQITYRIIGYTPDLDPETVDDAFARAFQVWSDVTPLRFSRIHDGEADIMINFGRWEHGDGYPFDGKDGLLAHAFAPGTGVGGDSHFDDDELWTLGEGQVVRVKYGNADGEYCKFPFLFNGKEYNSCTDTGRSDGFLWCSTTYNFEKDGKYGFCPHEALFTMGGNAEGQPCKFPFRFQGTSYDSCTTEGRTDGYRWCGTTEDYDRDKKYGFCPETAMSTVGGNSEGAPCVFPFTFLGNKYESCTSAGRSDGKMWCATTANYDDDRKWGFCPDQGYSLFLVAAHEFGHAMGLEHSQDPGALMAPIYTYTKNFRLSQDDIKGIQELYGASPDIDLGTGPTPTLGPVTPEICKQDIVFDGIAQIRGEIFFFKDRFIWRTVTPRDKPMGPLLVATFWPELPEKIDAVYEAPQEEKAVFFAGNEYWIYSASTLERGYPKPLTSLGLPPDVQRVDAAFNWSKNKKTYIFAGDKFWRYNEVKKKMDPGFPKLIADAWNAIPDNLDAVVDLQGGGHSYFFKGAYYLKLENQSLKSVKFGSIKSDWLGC
Protocol: as §2, §3

Compound | Ki (hMeprin α) | IC50 (hMeprin α) | Ki (hMeprin β) | IC50 (hMeprin β) | remaining activity at 10 µM (hMMP 13) | remaining activity at 200 µM (hMMP 13) | remaining activity at 10 µM (hMMP 2) | remaining activity at 200 µM (hMMP 2)
COc1cccc(-c2n[nH]c(-c3ccccc3)c2CC(=O)NO)c1 [Example 47, 2-[3-(3-Methoxyphenyl)-5-phenyl-1H-pyrazol-4-yl]ethanehydroxamic acid] | 1 nM | 1 nM | 116 nM | 123 nM | 85% | 28% | 78% | 17%
O=C(Cc1c(-c2ccc3c(c2)OCO3)n[nH]c1-c1ccccc1)NO [Example 50, 2-[3-(1,3-Benzodioxol-5-yl)-5-phenyl-1H-pyrazol-4-yl]ethanehydroxamic acid] | 1 nM | 1 nM | 109 nM | 118 nM | 71% | 10% | 41% | 8%
